The compounds below were run against T1, Recombinant human renin (Homo sapiens, UniProt P00797) (assay: Inhibition of renin (fluorogenic peptide substrate)). Conditions: recombinant human renin 5 nM, fluorogenic peptide substrate 10 μM, 2 h at room temperature, Tris buffer pH 8; compounds tested as the obtained salt.
T1 construct: purchased Cayman 10006217
T1 sequence (P00797 67-406): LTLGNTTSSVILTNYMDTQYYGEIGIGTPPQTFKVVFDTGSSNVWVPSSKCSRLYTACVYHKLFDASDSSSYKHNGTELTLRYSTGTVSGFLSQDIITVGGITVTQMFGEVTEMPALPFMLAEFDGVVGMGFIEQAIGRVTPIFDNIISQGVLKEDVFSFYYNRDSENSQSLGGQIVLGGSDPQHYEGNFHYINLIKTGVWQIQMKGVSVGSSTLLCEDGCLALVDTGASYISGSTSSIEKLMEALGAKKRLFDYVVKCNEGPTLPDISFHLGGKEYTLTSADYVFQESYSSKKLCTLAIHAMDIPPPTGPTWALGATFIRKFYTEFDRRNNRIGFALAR
Format: biochemical
Description: Recombinant human renin (Cayman, no. 10006217) at a concentration of 5 nM was incubated with the test compounds at various concentrations and the synthetic substrate Dabcyl-γ-Abu-Ile-His-Pro-Phe-His-Leu-Val-Ile-His-Thr-EDANS (Bachem, no. M-2050; Dabcyl means the 4-(4-dimethylamino-phenylazo)-benzoyl group and EDANS means the amide with 5-[(2-aminoethyl)amino]-naphthalene-1-sulfonic acid) at a concentration of 10 μM for 2 h at room temperature in 0.05 M Tris buffer (pH 8) containing 0.1 M NaCl, 2.5 mM EDTA and 1.25 mg/ml bovine serum albumin. The increase in fluorescence, which is due to fluorescence resonance energy transfer, was recorded at an excitation wavelength of 330 nm and an emission wavelength of 485 nm in a microplate spectrofluorometer. Inhibitory concentrations IC50 were calculated from the percentage of inhibition of renin activity as a function of the concentration of the test compound. […] Representative IC50 values, which were determined with the compounds in the form of the obtained salt indicated in the examples above, are listed in Table 4.
In the case of Cc1c(F)cccc1Cc1c(C(=O)N2CCN[C@@H](C)C2)c2ccccn2c1-c1ccccc1 [Example 15, [2-(3-Fluoro-2-methyl-benzyl)-3-phenyl-indolizin-1-yl)-((S)-3-methyl-piperazin-1-yl)-methanone], the IC50 is reported as 76 nM. Cc1cccc(C)c1Cc1c(-c2ccccc2)c2ccccn2c1C(=O)N1CCN[C@H](C)C1 [Example 17, [2-(2,6-Dimethyl-benzyl)-1-phenyl-indolizin-3-yl)-((R)-3-methyl-piperazin-1-yl)-methanone] was tested, and the IC50 was 870 nM. With Cc1c(F)cccc1Cc1c(-c2cccc(F)c2)c2ccccn2c1C(=O)N1CCNCC1 [Example 20, [2-(3-fluoro-2-methyl-benzyl)-1-(3-fluoro-phenyl)-indolizin-3-yl]-piperazin-1-yl-methanone] the IC50 was 3.4 nM. With Cc1c(F)cccc1Cc1c(-c2ccccc2)c2ccccn2c1C(=O)N1CCN[C@@H](CO)C1 [Example 22] the IC50 was 100 nM. With CNC(=O)CC[C@H]1CN(C(=O)c2c(Cc3cccc(F)c3C)c(-c3ccccc3)c3ccccn23)CCN1 [Example 26] the IC50 was 230 nM. With COC(=O)CCNC(=O)C[C@H]1CN(C(=O)c2c(Cc3cccc(F)c3C)c(-c3ccccc3)c3ccccn23)CCN1 [Example 30] the IC50 was 31 nM. With Cc1c(F)cccc1Cc1c(-c2ccccc2)c2ccccn2c1C(=O)N1CCN[C@@H](CC(=O)NCCS(C)(=O)=O)C1 [Example 31] the IC50 was 21 nM. In the case of Cc1c(F)cccc1Cc1c(-c2ccccc2)c2ccccn2c1C(=O)N1CCN[C@@H](CC(=O)NCc2cccnc2)C1 [Example 32], the IC50 is reported as 38 nM. In the case of COc1ccn2c(C(=O)N3CCNCC3)c(Cc3cccc(F)c3C)c(-c3ccccc3)c2c1 [Example 35, [2-(3-fluoro-2-methyl-benzyl)-7-methoxy-1-phenyl-indolizin-3-yl]-piperazin-1-yl-methanone], the IC50 is reported as 28 nM. In the case of Cc1c(F)cccc1Cc1c(-c2ccccc2)c2cc(C(=O)N3CCCCC3)cnn2c1C(=O)N1CCN[C@@H](CC(=O)NCCO)C1 [Example 39], the IC50 is reported as 7.4 nM. COCCN(C)C(=O)C[C@H]1CN(C(=O)c2c(Cc3cccc(F)c3C)c(-c3ccccc3)c3cc(C(=O)N(C)C)cnn23)CCN1 [Example 46] was tested, and the IC50 was 10 nM.

Reference: US8415336B2, “Cyclic (aza)indolizinecarboxamides, their preparation and their use as pharmaceuticals” (Sanofi, priority 2009, dated 2013)
